Assay results taken from article PMC12298827, “Subchronic Toxicities of Four Per- and Polyfluoroalkyl Substances (PFASs) by Oral Exposure in Sprague–Dawley Rats” (Toxics, 2025).

Test system: male and female Sprague–Dawley rats
Assay: 90-day subchronic oral gavage toxicity study
Type: in vivo, rat
Conditions: female
Procedure: Subchronic (90-day) studies were performed in accordance with current U.S. EPA’s Toxic Substances Control Act Good Laboratory Practice (GLP) Standards, with the following two general exceptions to the GLP guidelines: Analysis of the dose formulations was conducted according to RTI-approved Standard Operating Procedures, and corn oil (the vehicle) was not characterized (certificate of analysis from the vendor is available in the appendices to the final reports). Male and female Sprague–Dawley rats (five dose levels plus a control, n = 10/sex/dose group, corn oil vehicle dose volume of 3 mL/kg; oral gavage) were used in these studies, and the rats were euthanized on SD 91. The dose levels for PFHI were 0, 12.5, 25, 50, 100, and 200 mg/kg-day. The dose levels for MHFPK were 0, 18.8, 37.5, 75, 150, and 300 mg/kg-day. The dose levels for PFNAC were 0, 0.1, 0.3, 1.0, 3.0, and 10 mg/kg-day for male rats and 0, 0.3, 1.0, 3.0, 10, and 30 mg/kg-day for female rats. For CTFPA, the dose levels were 0, 1.9, 3.8. 7.5, 15, and 30 mg/kg-day for male rats and 0, 6.3, 12.5, 25, 50, and 100 mg/kg-day for female rats. For each PFAS, three batches of dosing solution were prepared. The time between the batch preparation of the dosing solutions ranged between 29 and 39 days. Blood samples were collected from all the rats at termination for serum chemistry, hematology, coagulation, and the analysis of the parent PFAS chemical in the plasma. In vivo data collection and further detail on the endpoints examined postmortem are described below.
The rats were observed twice daily for morbidity and mortality throughout the study period. At least once prior to randomization to test groups and weekly thereafter, the rats were physically examined, and bodyweights were obtained. Feed consumption was quantified weekly starting on SD 1.
Neurotoxicity was evaluated using the functional observational battery (FOB) and measuring locomotor activity (LMA) 2–4 h post dosing on SDs 78–80 and 80–84, respectively. For both the 14- and 90-day studies, an ophthalmologic examination was conducted prior to randomization and near the end of the study, using indirect ophthalmoscopy and slit–lamp biomicroscopy (as needed) after the administration of a mydriatic solution.
Hematology, biochemistry, and coagulation endpoints were measured at the termination of the study. A Siemens Advia 2120i hematology analyzer (Siemens Healthineers, Erlangen, Germany) was used to measure (or calculate) the parameters related to the complete blood count, leukocyte differential count, and reticulocyte count. The hematology parameters are listed and described in Table 2. The prothrombin time […] and activated partial thromboplastin time (APTT) were measured using an Instrumentation Laboratory (Bedford, MA, USA) ACL Elite Pro coagulation analyzer (laser–nephelometric centrifugal method).
At necropsy, the rats were visually examined for external abnormalities and organ weights (absolute and relative to the BW and brain weight), which were recorded (paired organs weighed together). The tissues were preserved in 10% neutral buffered formalin (NBF), except for the ocular tissues, testes, and epididymides, which were preserved in modified Davidson’s fixative and later transferred to 10% NBF. Bone marrow smears were prepared from the femurs, and the slides were air-dried, fixed in methanol, stained, and stored at room temperature for possible future evaluation. The preserved tissues were embedded in paraffin, sectioned, stained with hematoxylin and eosin, and examined by a board-certified veterinary pathologist.
Statistical analysis was performed using Provantis™ Version 10 or greater (Instem LSS, Limited; Stone, Staffordshire, UK). Differences among the treatment groups compared to the control were evaluated using one-way analysis of variance (ANOVA) if the underlying assumptions of a normal distribution (Shapiro–Wilk test) and the homogeneity of the variance (Levene’s test) were satisfied. […]

SMILES: C=CC(=O)OCC(F)(F)C(F)(F)C(F)(F)C(F)(F)C(F)(F)C(F)(F)C(F)(F)C(F)F [PFNAC, 1H,1H,9H-Perfluorononyl acrylate]
- Kidney Weight (1.0 mg/kg-day): 1.73 g
- Kidney/Body Weight (1.0 mg/kg-day): 0.59%
- Kidney/Brain Weight (1.0 mg/kg-day): 90.7%
- Liver Weight (1.0 mg/kg-day): 7.89 g
- Liver/Body Weight (1.0 mg/kg-day): 2.67%
- Liver/Brain Weight (1.0 mg/kg-day): 412%
- MPV (1.0 mg/kg-day): 7.59 ± 0.74 fL
- PT (1.0 mg/kg-day): 14.03 s
- RBC (1.0 mg/kg-day): 7.303±0.562 M/µL
- Total BW change (1.0 mg/kg-day): 94.80 g
- Total Food Consumed (1.0 mg/kg-day): 1444 g
- % BW Gain (3.0 mg/kg-day): 47.09%
- % Diff, % BW Gain (3.0 mg/kg-day): -3.49%
- % Diff, Total BW change (3.0 mg/kg-day): -2.02%
- % Diff, Total Food Consumed (3.0 mg/kg-day): 7.48%
- A/G (3.0 mg/kg-day): 1.15±0.06 ratio
- ABEOS (3.0 mg/kg-day): 0.083±0.028 K/µL
- ABNEUT (3.0 mg/kg-day): 1.419±0.734 K/µL
- ABRETi (3.0 mg/kg-day): 176.48±43.69 10^9/L
- ALB (3.0 mg/kg-day): 4.56 ± 0.18 g/dL
- ALPi (3.0 mg/kg-day): 55.4±20.6 U/L
- APTT (3.0 mg/kg-day): 20.34 s
- BUN (3.0 mg/kg-day): 16.4 ± 1.3 mg/dL
- CHOL (3.0 mg/kg-day): 92.3 ± 16.3 mg/dL
- GLOB (3.0 mg/kg-day): 3.97 ± 0.13 g/dL
- GLUC (3.0 mg/kg-day): 104.4 ± 8.0 mg/dL
- HCT (3.0 mg/kg-day): 41.82±2.32%
- HGB (3.0 mg/kg-day): 13.37 ± 0.68 g/dL
- Kidney Weight (3.0 mg/kg-day): 1.83 g
- Kidney/Body Weight (3.0 mg/kg-day): 0.61%
- Kidney/Brain Weight (3.0 mg/kg-day): 91.1%
- Liver Weight (3.0 mg/kg-day): 7.96 g
- Liver/Body Weight (3.0 mg/kg-day): 2.67%
- Liver/Brain Weight (3.0 mg/kg-day): 396%
- MPV (3.0 mg/kg-day): 7.77 ± 0.42 fL
- PT (3.0 mg/kg-day): 14.15 s
- RBC (3.0 mg/kg-day): 7.262±0.327 M/µL
- Total BW change (3.0 mg/kg-day): 99.10 g
- Total Food Consumed (3.0 mg/kg-day): 1512 g
- % BW Gain (10 mg/kg-day): 46.00%
- % Diff, % BW Gain (10 mg/kg-day): -5.72%
- % Diff, Total BW change (10 mg/kg-day): -5.60%
- % Diff, Total Food Consumed (10 mg/kg-day): 5.11%
- A/G (10 mg/kg-day): 1.17±0.07 ratio
- ABEOS (10 mg/kg-day): 0.081±0.022 K/µL
- ABNEUT (10 mg/kg-day): 1.562±1.084 K/µL
- ABRETi (10 mg/kg-day): 160.88±34.97 10^9/L
- ALB (10 mg/kg-day): 4.66 ± 0.39 g/dL
- ALPi (10 mg/kg-day): 50.5±7.3 U/L
- APTT (10 mg/kg-day): 22.50 s
- BUN (10 mg/kg-day): 19.1 ± 3.5 mg/dL
- CHOL (10 mg/kg-day): 77.7 ± 14.0 mg/dL
- GLOB (10 mg/kg-day): 3.98 ± 0.29 g/dL
- GLUC (10 mg/kg-day): 108.8 ± 12.0 mg/dL
- HCT (10 mg/kg-day): 41.08±2.03%
- HGB (10 mg/kg-day): 13.12 ± 0.63 g/dL
- Kidney Weight (10 mg/kg-day): 1.81 g
- Kidney/Body Weight (10 mg/kg-day): 0.62%
- Kidney/Brain Weight (10 mg/kg-day): 89.98%
- Liver Weight (10 mg/kg-day): 8.42 g
- Liver/Body Weight (10 mg/kg-day): 2.88%
- Liver/Brain Weight (10 mg/kg-day): 419%
- MPV (10 mg/kg-day): 7.80 ± 0.60 fL
- PT (10 mg/kg-day): 14.11 s
- RBC (10 mg/kg-day): 7.241±0.358 M/µL
- Total BW change (10 mg/kg-day): 95.48 g
- Total Food Consumed (10 mg/kg-day): 1479 g
- % BW Gain (30 mg/kg-day): 52.06%
- % Diff, % BW Gain (30 mg/kg-day): 6.69%
- % Diff, Total BW change (30 mg/kg-day): 5.59%
- % Diff, Total Food Consumed (30 mg/kg-day): 8.40%
- ABEOS (30 mg/kg-day): 0.082±0.026 K/µL
- ABNEUT (30 mg/kg-day): 1.118±0.358 K/µL
- ABRETi (30 mg/kg-day): 164.87±31.05 10^9/L
- APTT (30 mg/kg-day): 22.09 s
- HCT (30 mg/kg-day): 40.37±2.37%
- HGB (30 mg/kg-day): 13.04 ± 0.72 g/dL
- Kidney Weight (30 mg/kg-day): 1.99 g
- Kidney/Body Weight (30 mg/kg-day): 0.65%
- Kidney/Brain Weight (30 mg/kg-day): 101%
- Liver Weight (30 mg/kg-day): 9.83 g
